Literature values as cited in US7169819B2, “Pharmaceutical compositions of fenretinide having increased bioavailability and methods of using the same” (Childrens Hospital Los Angeles, priority 2000, dated 2007).

Legend:
[1] = rodents
[2] = background statement

- half-life [1]: 12 to 16 h
- Solubility in aqueous solution [2]: minimally soluble
Structure (SMILES): CC1=C(/C=C/C(C)=C/C=C/C(C)=C/C(=O)Nc2ccc(O)cc2)C(C)(C)CCC1 [Fenretinide, all-trans-N-(4-hydroxyphenyl)retinamide]
